Measured values taken from US4411908A, “Imidazoline derivatives as presynaptic α2 -adrenoreceptor antagonists” (priority 1981, dated 1983).
Structures can show the parent of a compound that is named as a salt. Where two headings read alike, the source gives them in different places.

Experiments:
[1] = tested on: presynaptic α-adrenoreceptor (vas deferens, pithed rat); assay: Presynaptic α-adrenoreceptor antagonism in the pithed rat (reversal of clonidine block on vas deferens, i.v.); settings: for i.v. dose of antagonist causing 50% reversal of clonidine block on vas deferens: Table 3, cumulative i.v. dosing, clonidine 100 μg/kg i.v., mean of a minimum of 4 rats
Protocol: The test drugs were injected intravenously in a cumulative dosing schedule and their abilities to reverse the inhibition of hypogastric nerve stimulation reflected their presynaptic antagonism.

[2] = target: T1, presynaptic α2-adrenoreceptor (rat vas deferens) (Rattus norvegicus, UniProt P22909); assay: Presynaptic α-adrenoreceptor antagonism vs clonidine, isolated rat vas deferens (0.1 Hz stimulation); format: cell-based
T1 construct: on the rat vas deferens stimulated at a frequency of 0.1 Hz; from tissue; host or cells: isolated rat vas deferens
T1 sequence (P22909 1-465): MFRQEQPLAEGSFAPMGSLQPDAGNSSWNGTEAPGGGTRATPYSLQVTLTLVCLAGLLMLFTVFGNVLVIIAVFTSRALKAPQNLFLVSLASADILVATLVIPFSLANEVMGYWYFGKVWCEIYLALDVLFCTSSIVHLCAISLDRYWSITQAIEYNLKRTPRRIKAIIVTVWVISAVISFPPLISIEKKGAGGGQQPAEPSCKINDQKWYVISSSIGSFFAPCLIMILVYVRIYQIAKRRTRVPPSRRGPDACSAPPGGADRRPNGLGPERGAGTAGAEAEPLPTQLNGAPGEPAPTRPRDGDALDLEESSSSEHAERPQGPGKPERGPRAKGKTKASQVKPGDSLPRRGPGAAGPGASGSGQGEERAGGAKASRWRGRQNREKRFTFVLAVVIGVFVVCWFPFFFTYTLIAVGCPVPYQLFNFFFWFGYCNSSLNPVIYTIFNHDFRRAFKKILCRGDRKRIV

[3] = target: T2, postsynaptic α-adrenoreceptor (rat anococcygeus muscle) (Rattus norvegicus, UniProt P43140); assay: Postsynaptic α-adrenoreceptor antagonism vs noradrenaline contractions, isolated rat anococcygeus muscle; format: cell-based
T2 construct: the rat anococcygeus muscle is used to establish postsynaptic α-adrenoreceptor activity; from tissue; host or cells: isolated rat anococcygeus muscle
T2 sequence (P43140 1-466): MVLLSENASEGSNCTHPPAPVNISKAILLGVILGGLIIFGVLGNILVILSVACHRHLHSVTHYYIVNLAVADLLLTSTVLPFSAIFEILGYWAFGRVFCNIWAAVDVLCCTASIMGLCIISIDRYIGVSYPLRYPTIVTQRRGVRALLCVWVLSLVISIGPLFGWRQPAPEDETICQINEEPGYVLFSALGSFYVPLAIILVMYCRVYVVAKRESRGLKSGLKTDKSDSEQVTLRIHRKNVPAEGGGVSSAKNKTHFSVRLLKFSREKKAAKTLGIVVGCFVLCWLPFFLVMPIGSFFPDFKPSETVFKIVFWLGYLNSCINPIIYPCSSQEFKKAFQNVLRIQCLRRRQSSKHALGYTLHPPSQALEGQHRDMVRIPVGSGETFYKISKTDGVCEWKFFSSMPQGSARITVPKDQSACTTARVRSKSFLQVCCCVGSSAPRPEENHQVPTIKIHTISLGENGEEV
From the text: This in vitro model is particularly useful as an initial screen for studying presynaptic activity in isolation since the physiological nature of the vas deferens tissue is such that the postsynaptic receptors located therein are particularly inaccessible to exogenous agents. In consequence an alternative tissue, the rat anococcygeus muscle is used to establish postsynaptic α-adrenoreceptor activity. Antagonism of noradrenaline contractions is used to determine pA2 values at postsynaptic α-adrenoreceptors.

[4] = tested on: postsynaptic α-adrenoreceptor (pithed rat); assay: Postsynaptic α-adrenoreceptor agonist activity in the pithed rat (diastolic blood pressure); settings: for i.v. dose causing 50 mmHg increase in diastolic blood pressure: Table 5, naive pithed rats
Protocol: In vivo presynaptic α-adrenoreceptor antagonist activity was determined using the methods outlined in section 2.

[5] = target: T3, postsynaptic α-adrenoreceptor (anococcygeus muscle) (Rattus norvegicus, UniProt P43140); assay: Postsynaptic α-adrenoreceptor agonist activity, isolated anococcygeus muscle; format: cell-based; settings: Table 4; negative log of molar concentration giving 50% maximum contraction; mean of a minimum of 3 experiments; read-out: Postsynaptic agonism pD2 (anococcygeus) (converted)
T3 construct: compound giving 50% maximum contraction in this instance, of the anococcygeus muscle; from tissue; host or cells: isolated anococcygeus muscle (rat)
T3 sequence (P43140 1-466): T2 sequence (P43140 1-466)

In the case of `Clc1ccc2c(c1)CC(C1=NCCN1)O2` (stereo not drawn) [Example 5, 2-[2-(5-chloro-2,3-dihydrobenzofuranyl)]-2-imidazoline hydrochloride], the “i.v. dose of antagonist causing 50% reversal of clonidine block on vas deferens” value [1] is reported as 0.102 mg/kg, the “relative potency against in vivo presynaptic α-adrenoreceptor stimulant effects of clonidine” value ([1]; compound of Example 5 compared with phentolamine) is reported as “approximately equipotent” and the “potency relative to yohimbine in pithed rats” value ([1]; vs yohimbine, i.v. (Table 3)) is reported as “approximately 8 times”. The Kb [2] was 6.31 nM, the Pre/post synaptic ratio ([2]; antagonism vs clonidine (rat vas deferens) to antagonism vs noradrenaline (rat anococcygeus)) was 100 and the Kb ([3]; Table 2, isolated rat anococcygeus, mean of a minimum of 5 experiments, read-out: Postsynaptic antagonism pA2 vs Noradrenaline (anococcygeus) (converted)) was 631 nM.
For `COC(=O)[C@@H]1[C@H]2C[C@H]3c4[nH]c5ccccc5c4CCN3C[C@@H]2CC[C@@H]1O` [Yohimbine HCl, reference compound], the “i.v. dose of antagonist causing 50% reversal of clonidine block on vas deferens” value [1] was 0.86 mg/kg.
`CN1CCN2c3ccccc3Cc3ccccc3C2C1` (stereo not drawn) [Mianserin HCl, reference compound] was tested, and the “i.v. dose of antagonist causing 50% reversal of clonidine block on vas deferens” value [1] was greater than 4.4 mg/kg.
With `c1ccc2oc(C3=NCCN3)cc2c1` [Compound A, 2-(2-benzofuranyl)-2-imidazoline, reference compound] the Kb ([2]; Table 4, isolated rat vas deferens, mean of a minimum of 3 experiments) was 832 nM and the Kb ([3]; Table 4, rat anococcygeus muscle, read-out: postsynaptic antagonist pA2 (rat anococcygeus muscle) (converted)) was 5750 nM.
In the case of `Clc1cccc(Cl)c1N=C1NCCN1` [Clonidine, reference compound], the “i.v. dose causing 50 mmHg increase in diastolic blood pressure” value (“i.v. dose causing 50 mmHg increase” below) [4] is reported as 0.003 mg/kg.
`c1ccc2c(c1)CC(C1=NCCN1)O2` (stereo not drawn) [Example 6, 2-[2-(2,3-dihydrobenzofuranyl)]-2-imidazoline hydrochloride] was tested, and the “i.v. dose causing 50% reversal of clonidine block on vas deferens” value ([1]; Table 5) was 0.030 mg/kg, the EC50 [5] was 501 nM and the Kb [2] was 3.16 nM. For the same compound, the “presynaptic α-adrenoreceptor antagonist properties” value ([2]; qualitative, b182: in both isolated tissues and intact animals) was “displays presynaptic α-adrenoreceptor antagonist properties”, the “potency as presynaptic α2 antagonist relative to the analogous dehydro compound” value ([2]; vs dehydro compound (Compound A), isolated vas deferens) was “more than 200 times” and the “i.v. dose causing 50 mmHg increase” value [4] was 0.020 mg/kg. For the same compound, the “potency as postsynaptic α-adrenoreceptor agonist relative to phenylephrine” value ([4]; vs phenylephrine, conclusion of section 4) was “slightly more potent than phenylephrine”.
With `CNC[C@H](O)c1cccc(O)c1` [Phenylephrine, reference compound] the “i.v. dose causing 50 mmHg increase” value [4] was 0.030 mg/kg.
In the case of `CN1CCN2c3ccccc3Cc3ccccc3C2C1` (stereo not drawn) [Mianserin, reference compound], the “maximum reversal of the inhibitory effects of clonidine on hypogastric nerve stimulation” value ([1]; cumulative intravenous dose of 4.4 mg/kg) is reported as 36%.
`Cc1ccc(N(CC2=NCCN2)c2cccc(O)c2)cc1` [Phentolamine mesylate, reference compound] was tested, and the “i.v. dose of antagonist causing 50% reversal of clonidine block on vas deferens” value [1] was 0.12 mg/kg.
